# Data reported in ChEMBL document CHEMBL4665679, “Ocular Disease Therapeutics: Design and Delivery of Drugs for Diseases of the Eye” (J Med Chem, 2020).
# Columns and labels:
# [1] = Equilibrium solubility in pH 6.8 potassium phosphate buffer incubated for 16 hrs by shake flask method; type: physicochemical
# [2] = target: Complement C5 (Homo sapiens, UniProt P01031); assay: Inhibition of C5 complement protein in 2% human serum incubated for 15 mins; type: cell-free
# [3] = Reduction of intraocular pressure in human at 0.1% administered topically to the eye and measured at 4 hr post-instillation during phase 1 clinical trial by tonometry; type: functional
# [4] = Reduction of intraocular pressure in human at 0.4%, OU administered twice daily for 8 weeks cotreated with timolol and measured every 2 weeks at 2 hrs post-instillation by tonometry; type: functional
# [5] = Reduction of intraocular pressure in human at 0.4%, OU administered twice daily for 8 weeks cotreated with timolol and measured every 2 weeks by tonometry; type: functional
# [6] = Reduction of intraocular pressure in human at 0.4%, OU administered twice daily for 52 weeks and measured every 2 weeks for first month and then every 4 weeks by tonometry; type: functional
# [7] = Reduction of intraocular pressure in human at 0.4%, OU administered twice daily for 8 weeks and measured every 4 weeks at 8 hrs post instillation during phase 2 clinical trial by tonometry; type: functional
# [8] = Reduction of intraocular pressure in human at 0.4%, OU administered twice daily for 8 weeks cotreated-with-latanoprost and measured every 2 weeks at 2 hrs post-instillation by tonometry; type: functional
# [9] = Reduction of intraocular pressure in human at 0.2%, OU administered twice daily for 8 weeks and measured every 4 weeks at 8 hrs post instillation during phase 2 clinical trial by tonometry; type: functional
# [10] = Reduction of intraocular pressure in human at 0.1%, OU administered twice daily for 8 weeks and measured every 4 weeks at 8 hrs post instillation during phase 2 clinical trial by tonometry; type: functional
# [11] = Reduction of intraocular pressure in human at 0.4%, OU administered twice daily for 52 weeks and measured every 2 weeks for first month and then every 4 weeks at 2 hr post-instillation by tonometry; type: functional
# [12] = target: T1, Complement factor D (Homo sapiens, UniProt P00746); assay: Inhibition of CFD in 50% human whole blood assessed as reduction in alternate complement pathway-mediated MAC formation pre-incubated for 15 mins followed by zymosan suspension addition and measured after 40 mins by ELISA; type: tissue-based
# T1 sequence (P00746 whole entry): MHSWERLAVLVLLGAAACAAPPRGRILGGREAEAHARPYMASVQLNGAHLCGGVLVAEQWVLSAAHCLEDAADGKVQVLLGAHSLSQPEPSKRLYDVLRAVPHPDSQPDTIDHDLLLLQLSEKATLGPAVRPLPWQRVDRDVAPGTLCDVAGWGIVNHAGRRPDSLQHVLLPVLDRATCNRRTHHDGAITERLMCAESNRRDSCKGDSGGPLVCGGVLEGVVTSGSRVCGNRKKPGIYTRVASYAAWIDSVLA
# [13] = Solubility of compound by NMR analysis; type: physicochemical
# [14] = Inhibition of N-terminal His-tagged human KLK7 (37 to 253 residues) Y180R mutant expressed in Escherichia coli BL21(DE3) using Ac-Glu-Phe-Lys-Pro-Ile-Leu-Trp-Arg-Leu-Gly-Cys(PT14)-Glu-NH2 as substrate preincubated for 1 hr followed by substrate addition by fluorescence-lifetime assay
# [15] = target: T1, Complement factor D; assay: Binding affinity to human CFD at 100 uM by WaterLOGSY NMR analysis
# [16] = Half life in human cornea by HPLC analysis; type: ADME, tissue-based
# [17] = Half life in cynomolgus monkey cornea by HPLC analysis; type: ADME, tissue-based, Macaca fascicularis; conditions: in vivo
# [18] = Half life in pig cornea by HPLC analysis; type: ADME, tissue-based, Sus scrofa; conditions: in vivo
# [19] = Half life in Beagle dog cornea by HPLC analysis; type: ADME, tissue-based, Canis lupus familiaris; conditions: in vivo
# [20] = Half life in Dutch Belted rabbit cornea by HPLC analysis; type: ADME, tissue-based, Oryctolagus cuniculus; conditions: in vivo
# [21] = target: T1, Complement factor D; assay: Inhibition of recombinant human CFD catalytic domain (G24 to A253 residues) expressed in Escherichia coli (Rosetta) using Z-Lys-thiobenzyl and 2,4-dinitrobenzenesulfonyl-2,7-[…]-fluorecein as substrate preincubated for 1 hr followed by substrate addition by spectrofluorimetric method
# [22] = target: T1, Complement factor D; assay: Inhibition of CFD in human RBC model of anti-CD55/anti-CD59-induced paroxysmal nocturnal hemoglobinuria assessed as reduction in complement fragment C3 deposition by FACS analysis; type: tissue-based
# [23] = target: T2, Nitric oxide synthase, inducible (Mus musculus, UniProt P29477); assay: Inhibition of LPS/IFN-gamma induced NO-dependent iNOS activity in mouse RAW 264.7 cells incubated for 16 hrs by Griess reagent based assay; type: cell-based, RAW264.7
# T2 sequence (P29477 whole entry): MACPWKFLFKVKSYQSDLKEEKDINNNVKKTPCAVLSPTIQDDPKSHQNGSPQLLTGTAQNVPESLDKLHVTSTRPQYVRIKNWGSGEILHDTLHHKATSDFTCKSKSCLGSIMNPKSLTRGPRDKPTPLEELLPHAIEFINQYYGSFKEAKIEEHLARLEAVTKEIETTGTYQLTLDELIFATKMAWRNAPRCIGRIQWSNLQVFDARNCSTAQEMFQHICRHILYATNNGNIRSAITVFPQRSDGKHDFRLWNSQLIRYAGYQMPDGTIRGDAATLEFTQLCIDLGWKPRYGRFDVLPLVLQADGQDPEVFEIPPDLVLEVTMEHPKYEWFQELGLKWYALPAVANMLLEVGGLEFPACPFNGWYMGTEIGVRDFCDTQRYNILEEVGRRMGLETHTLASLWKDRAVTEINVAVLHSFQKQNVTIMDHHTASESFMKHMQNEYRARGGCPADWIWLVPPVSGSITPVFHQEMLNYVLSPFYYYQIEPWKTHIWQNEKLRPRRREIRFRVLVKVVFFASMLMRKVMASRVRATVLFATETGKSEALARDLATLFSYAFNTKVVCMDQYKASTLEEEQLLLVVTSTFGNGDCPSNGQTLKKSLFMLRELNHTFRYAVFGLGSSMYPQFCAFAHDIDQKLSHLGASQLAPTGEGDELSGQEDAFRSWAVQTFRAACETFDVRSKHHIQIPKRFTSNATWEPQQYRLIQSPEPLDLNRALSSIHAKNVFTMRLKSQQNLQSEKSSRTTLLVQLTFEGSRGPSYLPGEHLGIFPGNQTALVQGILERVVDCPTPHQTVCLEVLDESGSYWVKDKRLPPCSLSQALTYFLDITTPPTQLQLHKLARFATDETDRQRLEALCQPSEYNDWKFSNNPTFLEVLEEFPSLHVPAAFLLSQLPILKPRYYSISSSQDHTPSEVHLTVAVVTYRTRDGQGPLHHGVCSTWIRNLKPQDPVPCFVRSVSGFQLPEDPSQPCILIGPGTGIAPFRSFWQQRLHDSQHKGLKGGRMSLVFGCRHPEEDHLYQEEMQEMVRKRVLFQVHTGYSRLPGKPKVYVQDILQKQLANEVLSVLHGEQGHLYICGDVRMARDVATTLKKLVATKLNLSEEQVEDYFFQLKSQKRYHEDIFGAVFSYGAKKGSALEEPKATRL
# [24] = Reduction of intraocular pressure in human at 0.024% administered topically to eye once daily for 4 weeks and measured for 8 hrs during diurnal/wake period by tonometry; type: functional
# [25] = Reduction of intraocular pressure in human at 0.024%, OU administered once daily and measured at 12 pm time point after 3 months by tonometry; type: functional; conditions: 2190 h
# [26] = Reduction of intraocular pressure in human at 0.024%, OU administered once daily for 14 days and measured for 24 hrs on day 14 by tonometry; type: functional; conditions: time 14 day
# [27] = Reduction of intraocular pressure in human at 0.024%, OU administered once daily and measured at 8 am time point after 6 weeks by tonometry; type: functional
# [28] = Reduction of intraocular pressure in human at 0.024%, OU administered once daily and measured at 1 year by tonometry; type: functional; conditions: 8760 h
# [29] = Reduction of intraocular pressure in human at 0.024%, OU administered to fellow-eye once daily for 14 days and measured for 24 hrs on day 14 by tonometry; type: functional; conditions: time 14 day
# [30] = Reduction of intraocular pressure in human at 0.024% administered topically to eye once daily and measured after 7 day during phase2 clinical trial by tonometry; type: functional
# [31] = Reduction of intraocular pressure in human at 0.024%, OU administered once daily and measured at 4 pm time point after 2 weeks by tonometry; type: functional
# [32] = Reduction of intraocular pressure in human at 0.024%, OU administered once daily and measured at 12 pm time point after 2 weeks by tonometry; type: functional
# [33] = Reduction of intraocular pressure in human at 0.024% administered topically to eye once daily for 4 weeks and measured for 8 hrs during nocturnal/sleep period by tonometry; type: functional
# [34] = Reduction of intraocular pressure in human at 0.024%, OU administered once daily and measured at 4 weeks by tonometry; type: functional
# [35] = Reduction of intraocular pressure in human at 0.024%, OU administered once daily and measured at 4 pm time point after 6 weeks by tonometry; type: functional
# [36] = Reduction of intraocular pressure in human at 0.024%, OU administered once daily and measured at 12 pm time point after 6 weeks by tonometry; type: functional
# [37] = Reduction of intraocular pressure in human at 0.024% administered topically to eye once daily and measured after 28 day during phase2 clinical trial by tonometry; type: functional
# [38] = Reduction of intraocular pressure in human at 0.024%, OU administered once daily and measured at 8 am time point after 3 months by tonometry; type: functional; conditions: 2190 h
# [39] = Reduction of intraocular pressure in human at 0.024%, OU administered once daily and measured at 4 pm time point after 3 months by tonometry; type: functional; conditions: 2190 h
# [40] = Reduction of intraocular pressure in human at 0.024%, OU administered once daily and measured at 8 am time point after 2 weeks by tonometry; type: functional
# [41] = Reduction of intraocular pressure in human at 0.024% administered topically to eye once daily and measured after 14 day during phase2 clinical trial by tonometry; type: functional
# [42] = test system: Rattus norvegicus; assay: Neuroprotective activity in Wistar rat model of streptozotocin-induced diabetic retinopathy assessed as decrease in retinal ganglion cells at 1 mg/kg, po dosed until 2 months starting 7 days prior to streptozotocin injection (reference value: 44%); type: functional; parameters: scale not given: the % may be the effect or the level left; conditions: 1460 h
# [43] = test system: Rattus norvegicus; assay: Neuroprotective activity in Wistar rat model of streptozotocin-induced diabetic retinopathy assessed as decrease in retinal ganglion cells at 5 mg/kg, po dosed until 2 months starting 7 days prior to streptozotocin injection (reference value: 44%); type: functional; parameters: scale not given: the % may be the effect or the level left; conditions: 1460 h
# Chain of Complement C5 (P01031 19-673 limits assumed): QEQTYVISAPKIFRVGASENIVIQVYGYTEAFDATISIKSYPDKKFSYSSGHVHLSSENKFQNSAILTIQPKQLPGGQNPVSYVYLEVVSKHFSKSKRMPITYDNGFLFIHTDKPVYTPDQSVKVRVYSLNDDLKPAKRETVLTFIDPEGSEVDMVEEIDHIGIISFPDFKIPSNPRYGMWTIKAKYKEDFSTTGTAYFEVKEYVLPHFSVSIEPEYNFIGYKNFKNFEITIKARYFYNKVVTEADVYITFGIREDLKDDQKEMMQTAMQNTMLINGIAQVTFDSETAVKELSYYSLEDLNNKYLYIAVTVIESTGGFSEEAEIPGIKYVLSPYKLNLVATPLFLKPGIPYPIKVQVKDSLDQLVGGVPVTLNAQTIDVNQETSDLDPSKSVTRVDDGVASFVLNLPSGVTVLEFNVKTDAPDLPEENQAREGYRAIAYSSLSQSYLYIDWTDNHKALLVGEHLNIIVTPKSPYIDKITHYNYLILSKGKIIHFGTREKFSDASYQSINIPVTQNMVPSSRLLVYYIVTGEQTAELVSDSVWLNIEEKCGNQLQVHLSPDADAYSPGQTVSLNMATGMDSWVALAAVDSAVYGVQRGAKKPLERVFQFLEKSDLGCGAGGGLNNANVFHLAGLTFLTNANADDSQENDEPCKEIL
# Chain of Complement C5 (P01031 678-1676 limits assumed): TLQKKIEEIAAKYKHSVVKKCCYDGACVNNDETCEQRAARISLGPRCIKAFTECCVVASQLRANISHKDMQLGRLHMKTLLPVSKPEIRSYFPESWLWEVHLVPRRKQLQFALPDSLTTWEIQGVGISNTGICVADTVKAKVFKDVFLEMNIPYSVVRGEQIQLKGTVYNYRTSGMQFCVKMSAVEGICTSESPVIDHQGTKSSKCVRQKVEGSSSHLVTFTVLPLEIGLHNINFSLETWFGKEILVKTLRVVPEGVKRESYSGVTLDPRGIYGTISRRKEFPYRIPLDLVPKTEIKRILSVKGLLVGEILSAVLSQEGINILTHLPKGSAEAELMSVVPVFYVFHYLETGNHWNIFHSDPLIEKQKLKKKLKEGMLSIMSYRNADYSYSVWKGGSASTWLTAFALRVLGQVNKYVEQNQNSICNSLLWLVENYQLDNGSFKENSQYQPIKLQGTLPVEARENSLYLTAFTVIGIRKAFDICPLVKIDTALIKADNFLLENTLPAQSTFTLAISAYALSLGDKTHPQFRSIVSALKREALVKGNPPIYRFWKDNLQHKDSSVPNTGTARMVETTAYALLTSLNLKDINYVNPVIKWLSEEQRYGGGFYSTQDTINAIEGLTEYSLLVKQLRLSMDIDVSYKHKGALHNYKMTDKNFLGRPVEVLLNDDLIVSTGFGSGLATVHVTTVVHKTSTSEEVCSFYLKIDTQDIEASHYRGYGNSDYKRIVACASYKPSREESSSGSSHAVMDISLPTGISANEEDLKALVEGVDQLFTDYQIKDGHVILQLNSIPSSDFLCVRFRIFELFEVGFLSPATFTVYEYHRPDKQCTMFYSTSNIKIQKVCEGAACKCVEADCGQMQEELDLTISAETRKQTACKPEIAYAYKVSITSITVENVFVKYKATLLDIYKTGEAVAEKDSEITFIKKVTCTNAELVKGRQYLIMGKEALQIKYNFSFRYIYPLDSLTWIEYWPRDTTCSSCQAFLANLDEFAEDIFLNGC
smiles,measurement,setting,value
CCCCCCOc1cc(NC(=O)N[C@@H](C)c2ccccc2)ccc1OC,solubility thermodynamic at 16 h,[1],< 4 µM
same,IC50,[2],0.21 µM
COc1ccc(NC(=O)N[C@@H](C)c2ccccc2)cc1OCCCC(C)C,solubility thermodynamic at 16 h,[1],< 4 µM
same,IC50,[2],0.44 µM
CC(N)c1ccc(C(=O)Nc2ccnc3[nH]ccc23)cc1 (configuration not stated),Activity,[3],3 mmHg
C[C@H]1CNCCCN1S(=O)(=O)c1cccc2cncc(F)c12,Activity,[4],1.6 mmHg
same,Activity,[5],0.9 mmHg
same,Activity,[6],-2.6 mmHg
same,Activity,[7],-3.1 mmHg
same,Activity,[8],1.4 mmHg
same,Activity,[9],-2.7 mmHg
same,Activity,[10],-3.2 mmHg
same,Activity,[11],-3.7 mmHg
NC(=O)c1nn(CC(=O)N2[C@@H]3C[C@@H]3C[C@H]2C(=O)Nc2cccc(Br)n2)c2ncccc12,IC50,[12],0.05 µM
NC(=O)c1cc2cc(OCc3cccc(C(=O)O)c3)ccc2[nH]1,solubility,[13],2000 µM
COC(=O)c1ccccc1CNC(=O)N1CCC[C@H]1C(=O)Nc1cccc(OC(F)(F)F)c1,IC50,[14],9 µM
NC(=O)c1cc2cc(OCc3ccccc3)ccc2[nH]1,solubility,[13],30 µM
same,Kd,[15],> 30 µM
Cc1ccc(C(=O)OCc2ccc([C@@H](CN)C(=O)Nc3ccc4cnccc4c3)cc2)c(C)c1,t1/2,[16],2.92 h
same,t1/2,[17],1.82 h
same,t1/2,[18],2.6 h
same,t1/2,[19],1.63 h
same,t1/2,[20],2.33 h
COc1ccc(CCNC(=O)[C@@H]2CCCN2C(=O)NCc2cccc3ccccc23)cc1,IC50,[14],0.7 µM
same,IC50,[21],> 30 µM
C[C@H](NC(=O)[C@@H]1C[C@H]2C[C@H]2N1C(=O)Cn1nc(C(N)=O)c2cccnc21)c1cccc(Cl)c1F,IC50,[12],0.14 µM
same,IC50,[22],0.07 µM
COc1cc(C(=O)O)c(NC(=O)N[C@@H](C)c2ccccc2)cc1OCCCC(C)C,solubility thermodynamic at 16 h,[1],728 µM
same,IC50,[2],0.62 µM
O=C(CCC/C=C\C[C@@H]1[C@@H](CC[C@@H](O)CCc2ccccc2)[C@H](O)C[C@@H]1O)OC(CO[N+](=O)[O-])CO[N+](=O)[O-],IC50,[23],55 µM
COc1ccc(NC(=O)N[C@@H](C)c2ccccc2OC)cc1OCCCC(C)C,solubility thermodynamic at 16 h,[1],≤ 4 µM
same,IC50,[2],≤ 0.005 µM
O=C(CCC/C=C\C[C@@H]1[C@@H](CC[C@H](O)CCc2ccccc2)[C@H](O)C[C@@H]1O)OCCCCO[N+](=O)[O-],Activity,[24],1.1 mmHg
same,Activity,[25],1.3 mmHg
same,Activity,[26],3.6 mmHg
same,Activity,[27],0.9 mmHg
same,Activity,[28],5.3 mmHg
same,Activity,[29],3.5 mmHg
same,Activity,[30],8.3 mmHg
same,Activity,[31],0.7 mmHg
same,Activity,[32],0.8 mmHg
same,Activity,[33],2.3 mmHg
same,Activity,[34],4.3 mmHg
same,Activity,[35],1 mmHg
same,Activity,[36],0.8 mmHg
same,Activity,[37],9 mmHg
same,Activity,[38],0.9 mmHg
same,Activity,[39],1.3 mmHg
same,Activity,[40],0.4 mmHg
same,Activity,[41],8.9 mmHg
OCCc1ccc(O)c(O)c1 [HYDROXYTYROSOL],Activity,[42],34%
same,Activity,[43],9%
